Results from patent US4418075A, “Epoxysuccinyl amino acid derivatives” (Taisho Pharmaceutical Co., Ltd., priority 1979, dated 1983).

Legend:
[1] = target: T1, CANP prepared from a muscle of hereditary muscular dystrophy chicken (Gallus gallus, UniProt P00789); assay: CANP inhibitory activity (method of Ishiura et al.); type: biochemical; details: 50% inhibition as molar ratio to the enzyme
T1 construct: CANP prepared from a muscle of hereditary muscular dystrophy chicken; from tissue; host or cells: muscle of hereditary muscular dystrophy chicken
T1 sequence (P00789 1-705): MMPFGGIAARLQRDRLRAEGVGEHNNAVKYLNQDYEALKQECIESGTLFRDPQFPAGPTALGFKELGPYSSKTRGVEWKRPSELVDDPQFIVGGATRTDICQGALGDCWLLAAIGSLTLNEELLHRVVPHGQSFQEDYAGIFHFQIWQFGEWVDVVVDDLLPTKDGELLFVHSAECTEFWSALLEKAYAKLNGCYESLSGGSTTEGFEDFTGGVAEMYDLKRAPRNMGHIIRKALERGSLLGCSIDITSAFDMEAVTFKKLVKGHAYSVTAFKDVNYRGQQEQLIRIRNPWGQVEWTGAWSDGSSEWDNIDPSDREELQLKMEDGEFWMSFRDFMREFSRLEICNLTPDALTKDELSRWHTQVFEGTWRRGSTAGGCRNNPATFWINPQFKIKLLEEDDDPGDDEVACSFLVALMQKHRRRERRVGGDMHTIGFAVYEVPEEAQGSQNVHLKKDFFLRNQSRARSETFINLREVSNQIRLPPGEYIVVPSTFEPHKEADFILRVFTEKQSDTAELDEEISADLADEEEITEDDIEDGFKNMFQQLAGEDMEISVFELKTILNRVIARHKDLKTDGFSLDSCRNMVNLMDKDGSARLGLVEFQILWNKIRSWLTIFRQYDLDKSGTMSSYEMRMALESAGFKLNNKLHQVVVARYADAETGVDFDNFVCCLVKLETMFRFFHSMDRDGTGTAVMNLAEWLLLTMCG
Method: Their muscular dystrophy inhibitory activity was assayed by the method of Ishiura et al., [J. Biochem., 84, 225 (1978)] using CANP prepared from a muscle of hereditary muscular dystrophy chicken, and the resulting value for 50% inhibition in the molar ratios for the enzyme expressed as ID50 (mole/mole) is shown in Table 1 below.

[2] = Concentration in rat plasma after subcutaneous administration; type: in vivo; details: sc, rats, 50 mg/kg, an hour after administration
Method: The compounds of the present invention are better absorbed by the subcutaneous route in mammals such as rats or rabbits, as compared with the epoxysuccinic acid derivatives of the German Patent Laid Open Application described above and Chemical Abstracts, 87, 68129a (1977). To determine absorption, these compounds were administered subcutaneously to rats at a dose of 50 mg/kg, and the concentration of the test compound in rat plasma at an hour after the administration is shown in following Table 1.

papain = target: T2, papain (Carica papaya, UniProt P00784); assay: Papain inhibitory activity (method of K. Hanada et al.); type: biochemical; details: amount of inhibitor for 50% inhibition; papain 80 μg/ml, Sigma, twice crystallized
T2 construct: purchased Sigma Chem. Co
T2 sequence (P00784 134-345): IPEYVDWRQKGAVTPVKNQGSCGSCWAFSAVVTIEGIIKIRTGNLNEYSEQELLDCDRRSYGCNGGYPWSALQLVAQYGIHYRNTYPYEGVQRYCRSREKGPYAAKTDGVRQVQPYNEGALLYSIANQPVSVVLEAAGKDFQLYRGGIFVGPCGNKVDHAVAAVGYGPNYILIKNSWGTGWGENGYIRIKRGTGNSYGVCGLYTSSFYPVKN
Method: Papain inhibitory activity of the compounds of the present invention was assayed by the method of K. Hanada et al [Argic. Biol. Chem., 42, (3)523(1978)] using papain (80 μg/ml, Sigma Chem. Co.) after twice crystallization.

[3] = in vivo
Method: The response was evaluated by the blueing spot at 15 minutes after the dye injection.

Structure (SMILES)	CANP Inhibitory Activity ID50 (mole/mole) [1] [mole/mole]	concentration at 1 h [2] [ng/mL]	Papain inhibitory activity ID50 (papain) [µg]	Acceleration of vascular permeability, Relative effect (%) to E-64 [3] [%]
CC(C)C[C@H](NC(=O)C1OC1C(=O)O)C(=O)NCCCCCN (mixture of isomers) [Compound 2, N-[N-(DL-3-trans-carboxyoxirane-2-carbonyl)-L-leucyl]-1,5-diaminopentane]	54	20000	0.105	2.3
CC(C)C[C@H](NC(=O)C1OC1C(=O)O)C(=O)NCCCCCCCNC(=O)OCc1ccccc1 (mixture of isomers) [Compound 3, N-[N-(DL-3-trans-carboxyoxirane-2-carbonyl)-L-leucyl]-N'-benzyloxycarbonyl-1,7-diaminoheptane]	20	11000	0.203	2.4
CC(C)C[C@H](NC(=O)[C@H]1O[C@@H]1C(=O)O)C(=O)NCCCCCCCN [Compound 1, N-[N-(L-3-trans-carboxyoxirane-2-carbonyl)-L-leucyl]-1,7-diaminoheptane]	33	15000	0.103	2.8
CC(C)C[C@H](NC(=O)[C@H]1O[C@@H]1C(=O)O)C(=O)NCCCCN=C(N)N [Compound E-64, N-[N-(L-3-trans-carboxyoxirane-2-carbonyl)-L-leucyl]agmatine, reference compound]				100.0
CCOC(=O)C1OC1C(=O)N[C@@H](CC(C)C)C(=O)NCCCCNC(=O)OCc1ccccc1 (stereo partly drawn) [F, N--[N--(DL3-trans-ethoxycarbonyloxirane-2-carbonyl)-L-leucyl] N'--benzyloxycarbonyl1,4-diaminobutane, reference compound]	480	< 1000		
